# Measured values published in patent US20110294772A1, “USE OF CYCLOSQUARAMIDE COMPOUNDS AS ANTI-TUMOUR AGENTS” (priority 2008, published 2011).
# Experiments:
# HCT-116 (Colon) = test: NCI60 panel IC50; type: cell-based; conditions: Homo sapiens
# Experimental: (§1) On the other hand, the values of IC50 were determined in the panel of NCl60 cell lines for compound 10.
# (§2) A total of 2 independent experiments were carried out with assays in triplicate for the compound and cell line. All those assays where an IC50 value was not reached in the highest concentration of 1E-05 M are represented by “>1E-05”. In these cases, the standard deviation cannot be calculated and for that reason it is calculated as “-”.
# HI-60 (Leukaemia) = test: NCI60 panel IC50; type: cell-based; conditions: Homo sapiens
# Experimental: as §1, §2
# SF-268 (CNS) = test: NCI60 panel IC50; type: cell-based; conditions: Homo sapiens, 2 experiments in triplicate
# Experimental: as §1, §2
# PC-3 (Prostate) = test: NCI60 panel IC50; type: cell-based; conditions: Homo sapiens
# Experimental: as §1, §2
# SK-BR-3 (Breast) = test: NCI60 panel IC50; type: cell-based; conditions: Homo sapiens
# Experimental: as §1, §2
# Caki-1 (Renal) = test: NCI60 panel IC50; type: cell-based; conditions: Homo sapiens
# Experimental: as §1, §2
# M-14 (Melanoma) = test: NCI60 panel IC50; type: cell-based; conditions: Homo sapiens, M14
# Experimental: as §1, §2
# A549 (Lung) = test: NCI60 panel IC50; type: cell-based; conditions: Homo sapiens
# Experimental: as §1, §2
# NCI-H23 (Lung) = test: NCI60 panel IC50; type: cell-based; conditions: Homo sapiens
# Experimental: as §1, §2
# SHP-77 (Lung) = test: NCI60 panel IC50; type: cell-based; conditions: Homo sapiens, SHP77
# Experimental: as §1, §2
# NCI-H460 (Lung) = test: NCI60 panel IC50; type: cell-based; conditions: Homo sapiens
# Experimental: as §1, §2
# SF539 (Astrocytoma) = test: NCI60 panel IC50; type: cell-based; conditions: Homo sapiens, SF-539
# Experimental: as §1, §2
# Hs-578-T (Breast) = test: NCI60 panel IC50; type: cell-based; conditions: Homo sapiens
# Experimental: as §1, §2
# SNB-19 (CNS) = test: NCI60 panel IC50; type: cell-based; conditions: Homo sapiens
# Experimental: as §1, §2
# RXF-393 (Renal) = test: NCI60 panel IC50; type: cell-based; conditions: Homo sapiens
# Experimental: as §1, §2
# T47-D (Breast) = test: NCI60 panel IC50; type: cell-based; conditions: Homo sapiens, T47D
# Experimental: as §1, §2
# DMS-114 (Lung) = test: NCI60 panel IC50; type: cell-based; conditions: Homo sapiens
# Experimental: as §1, §2
# SW-480 (Colon) = test: NCI60 panel IC50; type: cell-based; conditions: Homo sapiens, SW480
# Experimental: as §1, §2
# SK-OV-3 (Ovarian) = test: NCI60 panel IC50; type: cell-based; conditions: Homo sapiens
# Experimental: as §1, §2
# MALME-3M (Melanoma) = test: NCI60 panel IC50; type: cell-based; conditions: Homo sapiens
# Experimental: as §1, §2
# OVCAR-3 (Ovarian) = test: NCI60 panel IC50; type: cell-based; conditions: Homo sapiens
# Experimental: as §1, §2
# COLO-205 (Colon) = test: NCI60 panel IC50; type: cell-based; conditions: Homo sapiens
# Experimental: as §1, §2
# NCI-H226 (Lung) = test: NCI60 panel IC50; type: cell-based; conditions: Homo sapiens
# Experimental: as §1, §2
# IGR-OVI (Ovarian) = test: NCI60 panel IC50; type: cell-based; conditions: Homo sapiens
# Experimental: as §1, §2
# SN 12C (Renal) = test: NCI60 panel IC50; type: cell-based; conditions: Homo sapiens, SN12C
# Experimental: as §1, §2
# UACC-62 (Melanoma) = test: NCI60 panel IC50; type: cell-based; conditions: Homo sapiens
# Experimental: as §1, §2
# K-562 (Leukaemia) = test: NCI60 panel IC50; type: cell-based; conditions: Homo sapiens, K562
# Experimental: as §1, §2
# MCF-7 (Breast) = test: NCI60 panel IC50; type: cell-based; conditions: Homo sapiens, MCF7
# Experimental: as §1, §2
# HOP-62 (Lung) = test: NCI60 panel IC50; type: cell-based; conditions: Homo sapiens
# Experimental: as §1, §2
# DAUDI (Leukaemia) = test: NCI60 panel IC50; type: cell-based; conditions: Homo sapiens
# Experimental: as §1, §2
# UO-31 (Renal) = test: NCI60 panel IC50; type: cell-based; conditions: Homo sapiens
# Experimental: as §1, §2
# SK-MEL-2 (Melanoma) = test: NCI60 panel IC50; type: cell-based; conditions: Homo sapiens
# Experimental: as §1, §2
# ACHN (Renal) = test: NCI60 panel IC50; type: cell-based; conditions: Homo sapiens
# Experimental: as §1, §2
# ADR-RE-3 (Breast) = test: NCI60 panel IC50; type: cell-based; conditions: Homo sapiens
# Experimental: as §1, §2
# HOP-92 (Lung) = test: NCI60 panel IC50; type: cell-based; conditions: Homo sapiens
# Experimental: as §1, §2
# U-251 (CNS) = test: NCI60 panel IC50; type: cell-based; conditions: Homo sapiens
# Experimental: as §1, §2
# BT-549 (Breast) = test: NCI60 panel IC50; type: cell-based; conditions: Homo sapiens
# Experimental: as §1, §2
# RPMI-8226 (Leukaemia) = test: NCI60 panel IC50; type: cell-based; conditions: Homo sapiens
# Experimental: as §1, §2
# CCRF-CEM (Leukaemia) = test: NCI60 panel IC50; type: cell-based; conditions: Homo sapiens
# Experimental: as §1, §2
# MDA-MB-435 S (Breast) = test: NCI60 panel IC50; type: cell-based; conditions: Homo sapiens
# Experimental: as §1, §2
# MDA-MB-468 (Breast) = test: NCI60 panel IC50; type: cell-based; conditions: Homo sapiens
# Experimental: as §1, §2
# MDA-MB-231 (Breast) = test: NCI60 panel IC50; type: cell-based; conditions: Homo sapiens
# Experimental: as §1, §2
# MOLT-4 (Leukaemia) = test: NCI60 panel IC50; type: cell-based; conditions: Homo sapiens
# Experimental: as §1, §2
# TK-10 (Renal) = test: NCI60 panel IC50; type: cell-based; conditions: Homo sapiens
# Experimental: as §1, §2
# Granta-519 = test: cell viability assay; type: cell-based, human; conditions: Granta-519 B-cell lymphoma (MCL), 48 h, with respect to untreated control cells
smiles,measurement,setting,value
CN1CCCNc2c(c(=O)c2=O)NCCCN(C)CCCNc2c(c(=O)c2=O)NCCCN(C)CCCNc2c(c(=O)c2=O)NCCCN(C)CCCNc2c(c(=O)c2=O)NCCCN(C)CCCNc2c(c(=O)c2=O)NCCC1 [Compound 10],IC50,HCT-116 (Colon),2.98 µM
same,IC50,HI-60 (Leukaemia),2.41 µM
same,IC50,SF-268 (CNS),5.61 µM
same,IC50,PC-3 (Prostate),2.46 µM
same,IC50,SK-BR-3 (Breast),0.308 µM
same,IC50,Caki-1 (Renal),5.75 µM
same,IC50,M-14 (Melanoma),7.21 µM
same,IC50,A549 (Lung),5.29 µM
same,IC50,NCI-H23 (Lung),3.02 µM
same,IC50,SHP-77 (Lung),2.9 µM
same,IC50,NCI-H460 (Lung),6.88 µM
same,IC50,SF539 (Astrocytoma),3.52 µM
same,IC50,Hs-578-T (Breast),7.79 µM
same,IC50,SNB-19 (CNS),1.81 µM
same,IC50,RXF-393 (Renal),2.77 µM
same,IC50,T47-D (Breast),1.89 µM
same,IC50,DMS-114 (Lung),8.72 µM
same,IC50,SW-480 (Colon),1.8 µM
same,IC50,SK-OV-3 (Ovarian),3.1 µM
same,IC50,MALME-3M (Melanoma),9.28 µM
same,IC50,OVCAR-3 (Ovarian),5.07 µM
same,IC50,COLO-205 (Colon),3.23 µM
same,IC50,NCI-H226 (Lung),1.53 µM
same,IC50,IGR-OVI (Ovarian),2.38 µM
same,IC50,SN 12C (Renal),4.12 µM
same,IC50,UACC-62 (Melanoma),1.34 µM
same,IC50,K-562 (Leukaemia),4.07 µM
same,IC50,MCF-7 (Breast),4.67 µM
same,IC50,HOP-62 (Lung),6.37 µM
same,IC50,DAUDI (Leukaemia),1.99 µM
same,IC50,UO-31 (Renal),2.17 µM
same,IC50,SK-MEL-2 (Melanoma),3.29 µM
same,IC50,ACHN (Renal),3.25 µM
same,IC50,ADR-RE-3 (Breast),1.62 µM
same,IC50,HOP-92 (Lung),3.53 µM
same,IC50,U-251 (CNS),7.86 µM
same,IC50,BT-549 (Breast),2.21 µM
same,IC50,RPMI-8226 (Leukaemia),8.97 µM
same,IC50,CCRF-CEM (Leukaemia),2.09 µM
same,IC50,MDA-MB-435 S (Breast),3.66 µM
same,IC50,MDA-MB-468 (Breast),2.37 µM
same,IC50,MDA-MB-231 (Breast),2.32 µM
same,IC50,MOLT-4 (Leukaemia),1.36 µM
same,IC50,TK-10 (Renal),3.36 µM
same,% Cell viability,Granta-519,58%
